From patent US11390604B2 (Hoffmann-La Roche Inc., priority 2019, dated 2022)
Counter-ions that a name gives are not always drawn.

What follows are compounds tested on Acinetobacter baumannii ATCC 17961 (assay: Antimicrobial susceptibility testing: 90% growth inhibitory concentration (IC90) determination). Settings: ATCC17961, Acinetobacter baumannii ATCC 17961, Iso-Sensitest broth, read-out: ATCC 17961 IC90.
Assay type: cell-based
Summary of the method: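 Broth microdilution in Iso-Sensitest medium, twofold series (e.g. 50 to 0.097 μM final), ~5×10^5 CFU/ml inoculum, 35±2 °C. OD600 read every 20 min over 16 h. IC90 derived from growth inhibition during logarithmic phase.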
For Cn1c(-c2cn(C3CC3(F)F)nc2C(F)(F)F)cnc1C(=O)Nc1ccc(N2CCCC2=O)cc1 (centres unmarked) [Example 204, 5-(1-(2,2-difluorocyclopropyl)-3-(trifluoromethyl)-1H-pyrazol-4-yl)-1-methyl-N-(4-(2-oxopyrrolidin-1-yl)phenyl)-1H-imidazole-2-carboxamide], the IC90 was 223 nM.
COCC#CCn1cc(-c2cnc(C(=O)Nc3ccc(C(=O)N4CCN(C(=O)C5CCNCC5)CC4)c(Cl)c3)n2C)c(C(F)(F)F)n1 [Example 18, N-(3-chloro-4-(4-(piperidine-4-carbonyl)piperazine-1-carbonyl)phenyl)-5-(1-(4-methoxybut-2-yn-1-yl)-3-(trifluoromethyl)-1H-pyrazol-4-yl)-1-methyl-1H-imidazole-2-carboxamide hydrochloride] was tested, and the IC90 was 419 nM.
CCc1cc(NC(=O)c2ncc(-c3cn(CC#N)nc3C(F)(F)F)n2C)ccc1C(=O)N1CCN(C(=O)N2CCC(CN)C2)CC1 (centres unmarked) [Example 138, N-[4-[4-[3-(aminomethyl)pyrrolidine-1-carbonyl]piperazine-1-carbonyl]-3-ethylphenyl]-5-[1-(cyanomethyl)-3-(trifluoromethyl)pyrazol-4-yl]-1-methylimidazole-2-carboxamide;formic acid] gave an IC90 of 888 nM.
For Cn1c(-c2cn(C3CC3(F)F)nc2C(F)(F)F)cnc1C(=O)Nc1ccc(C(=O)NC2CC3CN(C(=O)N[C@H]4CNC[C@@H]4O)CC32)c(Cl)c1 (mixture of isomers) [Example 347, rac-6-(2-chloro-4-(5-(1-(2,2-difluorocyclopropyl)-3-(trifluoromethyl)-1H-pyrazol-4-yl)-1-methyl-1H-imidazole-2-carboxamido)benzamido)-N-((3S,4S)-4-hydroxypyrrolidin-3-yl)-3-azabicyclo[3.2.0]heptane-3-carboxamide formate], the IC90 was 446 nM.
For Cn1c(-c2cn(CC(C)(CO)CCl)nc2C(F)(F)F)cnc1C(=O)Nc1ccc(C(=O)N2CCN(C(=O)C3CCNCC3)CC2)c(Cl)c1 (centres unmarked) [Example 101, 5-[1-[2-(chloromethyl)-3-hydroxy-2-methylpropyl]-3-(trifluoromethyl)pyrazol-4-yl]-N-[3-chloro-4-[4-(piperidine-4-carbonyl)piperazine-1-carbonyl]phenyl]-1-methylimidazole-2-carboxamide;formic acid], the IC90 was 733 nM.
For Cn1c(-c2cn(C3CC4(CC4)C3)nc2C(F)(F)F)cnc1C(=O)Nc1ccc(C(=O)N2CCN(C(=O)C3CCNCC3)CC2)c(Cl)c1 [Example 108, N-[3-chloro-4-[4-(piperidine-4-carbonyl)piperazine-1-carbonyl]phenyl]-1-methyl-5-[1-spiro[2.3]hexan-5-yl-3-(trifluoromethyl)pyrazol-4-yl]imidazole-2-carboxamide;hydrochloride], the IC90 was 248 nM.
Work on Cn1c(-c2cn(CC(F)F)nc2C(F)(F)F)cnc1C(=O)Nc1ccc(S(=O)(=O)N2CCN(C(=O)[C@H]3C[C@H](O)CN3)CC2)c(Cl)c1 [Example 198, N-(3-chloro-4-((4-((2R,4S)-4-hydroxypyrrolidine-2-carbonyl)piperazin-1-yl)sulfonyl)phenyl)-5-(1-(2,2-difluoroethyl)-3-(trifluoromethyl)-1H-pyrazol-4-yl)-1-methyl-1H-imidazole-2-carboxamide hydrochloride] yielded an IC90 of 207 nM.
CCc1cc(NC(=O)c2ncc(-c3cn(CC(F)F)nc3C(F)(F)F)n2C)ccc1C(=O)N1CCN(C(=O)C2CCN(C)CC2)CC1 [Example 152, 5-[1-(2,2-difluoroethyl)-3-(trifluoromethyl)pyrazol-4-yl]-N-[3-ethyl-4-[4-(1-methylpiperidine-4-carbonyl)piperazine-1-carbonyl]phenyl]-1-methylimidazole-2-carboxamide] was tested, and the IC90 was 1170 nM.
Cn1c(-c2cn(CC3CC3(F)F)nc2C(F)(F)F)cnc1C(=O)Nc1ccc(C(=O)NC2C3CN(C(=O)C4CCNCC4)CC32)c(Cl)c1 (centres unmarked) [Example 220, N-(3-chloro-4-((3-(piperidine-4-carbonyl)-3-azabicyclo[3.1.0]hexan-6-yl)carbamoyl)phenyl)-5-(1-((2,2-difluorocyclopropyl)methyl)-3-(trifluoromethyl)-1H-pyrazol-4-yl)-1-methyl-1H-imidazole-2-carboxamide formate] was tested, and the IC90 was 245 nM.
C#CCn1cc(-c2cnc(C(=O)Nc3ccc(C(=O)NCCOC[C@@H](C)N)c(Cl)c3)n2C)c(C(F)(F)F)n1 [Example 45, (R)-N-(4-((2-(2-aminopropoxy)ethyl)carbamoyl)-3-chlorophenyl)-1-methyl-5-(1-(prop-2-yn-1-yl)-3-(trifluoromethyl)-1H-pyrazol-4-yl)-1H-imidazole-2-carboxamide 2,2,2-trifluoroacetate] was tested, and the IC90 was 262 nM.
C#CCn1cc(-c2cnc(C(=O)Nc3ccc(C(=O)N4CCN(C(=O)N5CCC(N)CC5)CC4)c(Cl)c3)n2C)c(C(F)(F)F)n1 [Example 84, N-[4-[4-(4-aminopiperidine-1-carbonyl)piperazine-1-carbonyl]-3-chlorophenyl]-1-methyl-5-[1-prop-2-ynyl-3-(trifluoromethyl)pyrazol-4-yl]imidazole-2-carboxamide] was tested, and the IC90 was 191 nM.
For Cn1c(-c2cn(CC#N)nc2C(F)(F)F)cnc1C(=O)Nc1ccc(C(=O)NCCCCN)c(Cl)c1 [Example 345, N-(4-((4-aminobutyl)carbamoyl)-3-chlorophenyl)-5-(1-(cyanomethyl)-3-(trifluoromethyl)-1H-pyrazol-4-yl)-1-methyl-1H-imidazole-2-carboxamide tris(2,2,2-trifluoroacetate)], the IC90 was 444 nM.
Cn1c(-c2cn(CC3CC3)nc2C(F)(F)F)cnc1C(=O)Nc1ccc(C(=O)N2CCN(C(=O)N[C@@H]3CC[C@@H](N)C3)CC2)c(Cl)c1 [Example 369, N-((1R,3R)-3-aminocyclopentyl)-4-(2-chloro-4-(5-(1-(cyclopropylmethyl)-3-(trifluoromethyl)-1H-pyrazol-4-yl)-1-methyl-1H-imidazole-2-carboxamido)benzoyl)piperazine-1-carboxamide] was tested, and the IC90 was 485 nM.
Cn1c(-c2cn(C3CC3)nc2C(F)(F)F)cnc1C(=O)Nc1ccc(C(=O)N2CCN(C(=O)N3CC(N)C3)CC2)c(Cl)c1 [Example 216, N-(4-(4-(3-aminoazetidine-1-carbonyl)piperazine-1-carbonyl)-3-chlorophenyl)-5-(1-cyclopropyl-3-(trifluoromethyl)-1H-pyrazol-4-yl)-1-methyl-1H-imidazole-2-carboxamide formate] gave an IC90 of 243 nM.
In the case of Cn1c(-c2cn(Cc3cccnc3)nc2C(F)(F)F)cnc1C(=O)Nc1ccc(C(=O)N2CCNCC2)c(Cl)c1 [Example 67, N-[3-chloro-4-(piperazine-1-carbonyl)phenyl]-1-methyl-5-[1-(pyridin-3-ylmethyl)-3-(trifluoromethyl)pyrazol-4-yl]imidazole-2-carboxamide;hydrochloride], the IC90 is reported as 1440 nM.
Compound Cc1cc(NC(=O)c2ncc(-c3cn(CC#N)nc3C(F)(F)F)n2C)cc(F)c1C(=O)N1CCN(C(=O)[C@H]2C[C@H](N)C2)CC1 [Example 118, N-[4-[4-(3-aminocyclobutanecarbonyl)piperazine-1-carbonyl]-3-fluoro-5-methylphenyl]-5-[1-(cyanomethyl)-3-(trifluoromethyl)pyrazol-4-yl]-1-methylimidazole-2-carboxamide] has an IC90 of 884 nM.
In the case of Cn1c(-c2cn(CF)nc2C(F)(F)F)cnc1C(=O)Nc1ccc(C(=O)N2CCN(C(=O)C3CCNCC3)CC2)c(Cl)c1 [Example 99, N-[3-chloro-4-[4-(piperidine-4-carbonyl)piperazine-1-carbonyl]phenyl]-5-[1-(fluoromethyl)-3-(trifluoromethyl)pyrazol-4-yl]-1-methylimidazole-2-carboxamide;hydrochloride], the IC90 is reported as 403 nM.
Cn1c(-c2cn(CC3CC3)nc2C(F)(F)F)cnc1C(=O)Nc1ccc(C(=O)N2CCN(C(=O)N[C@H]3C[C@@H](N)C3)CC2)c(F)c1 [Example 218, N-((1s,3s)-3-aminocyclobutyl)-4-(4-(5-(1-(cyclopropylmethyl)-3-(trifluoromethyl)-1H-pyrazol-4-yl)-1-methyl-1H-imidazole-2-carboxamido)-2-fluorobenzoyl)piperazine-1-carboxamide; hydrochloride] gave an IC90 of 244 nM.
With CCc1cc(NC(=O)c2ncc(-c3cn(CC#N)nc3C(F)(F)F)n2C)ccc1C(=O)N1CCN(C(=O)C2(O)CCNCC2)CC1 [Example 129, 5-[1-(cyanomethyl)-3-(trifluoromethyl)pyrazol-4-yl]-N-[3-ethyl-4-[4-(4-hydroxypiperidine-4-carbonyl)piperazine-1-carbonyl]phenyl]-1-methylimidazole-2-carboxamide;formic acid] the IC90 was 949 nM.
For Cn1c(-c2cn(C3CC3(F)F)nc2C(F)(F)F)cnc1C(=O)Nc1ccc(C(=O)NCC2(N)CC2)c(Cl)c1 (centres unmarked) [Example 178, N-(4-(((1-aminocyclopropyl)methyl)carbamoyl)-3-chlorophenyl)-5-(1-(2,2-difluorocyclopropyl)-3-(trifluoromethyl)-1H-pyrazol-4-yl)-1-methyl-H-imidazole-2-carboxamide Formate], the IC90 was 86 nM.
Compound CCc1cc(NC(=O)c2ncc(-c3cn(CC#N)nc3C(F)(F)F)n2C)ccc1C(=O)N1CCN(C(=O)[C@H]2C[C@H](N)C2)CC1 [Example 340, N-[4-[4-(3-aminocyclobutanecarbonyl)piper-azine-1-carbonyl]-3-ethyl-phenyl]-5-[1-(cyanomethyl)-3-(trifluoromethyl)pyrazol-4-yl]-1-methyl-imidazole-2-carboxamide; formic acid] has an IC90 of 428 nM.
For CCc1cc(NC(=O)c2ncc(-c3cn(CC#N)nc3C(F)(F)F)n2C)ccc1C(=O)N1CCN(C(=O)N2CCCC(N)C2)CC1 (centres unmarked) [Example 133, N-[4-[4-(3-aminopiperidine-1-carbonyl)piperazine-1-carbonyl]-3-ethylphenyl]-5-[1-(cyanomethyl)-3-(trifluoromethyl)pyrazol-4-yl]-1-methylimidazole-2-carboxamide;formic acid], the IC90 was 775 nM.
For Cn1c(-c2cn(C3CC3)nc2C(F)(F)F)cnc1C(=O)Nc1ccc(C(=O)N2CCC(N3CCC(O)CC3)CC2)c(Cl)c1 [Example 370], the IC90 was 485 nM.
